The source of these data is patent US20240309004A1, “SELECTIVE CYCLIN-DEPENDENT KINASE INHIBITORS AND METHODS OF THERAPEUTIC USE THEREOF” (ViroKyne Therapeutics, LLC, priority 2021, published 2024).

Like-named read-outs stand apart in the source and are kept apart here.

The subject of data set [1] is HSV1 strain DM.2 - resistant isolate. Kind of data set: HSV1 primary assay, resistant isolate DM.2, HFF cells. The format is cell-based, Herpes Simplex Virus 1. The following applies: Human alphaherpesvirus 1, HFF. On the procedure:
(§1) Assays were performed in monolayers as described. […] Toxicity was measured using CTG as above. […] Toxicity was measured using CTG as above.
(§2) Monolayers of HFF cells were prepared in six-well plates and incubated at 37° C. for 2 d to allow the cells to reach confluency. Media was then aspirated from the wells and 0.2 mL of virus-containing solution was added to each of three wells to yield 20-30 plaques in each well. The virus was allowed to adsorb to the cells for 1 h and the plates were agitated every 15 minutes. Compounds were diluted in assay media consisting of MEM with Earl's salts supplemented with 2% FBS, glutamine, penicillin, and gentamycin. Diluted drug was added to duplicate wells and the plates were incubated for various times, depending on the virus used. For HSV-1 and -2, the monolayers were then stained with 1% crystal violet in 20% methanol and the unbound dye removed by washing with dH20. For all other assays, the cell monolayer was stained with 1% Neutral Red solution for 4-6 h then the stain was aspirated and the cells were washed with PBS.

For another data set, the system named is HSV1 strain E-377. Kind of data set: HSV1 primary assay, strain E-377, HFF cells. The data set is classed as cell-based, Herpes Simplex Virus 1. On the procedure: as §1, §2
A further data set concerns VZV strain Ellen. Kind of data set: VZV primary assay, strain Ellen, HFF cells. The data set is classed as cell-based, Varicella Zoster Virus. On the procedure:
as §1, §2

In the next data set the test system is HSV2 strain G. Nature of the data set: HSV2 primary assay, strain G, HFF cells. The format is cell-based, herpes simplex virus 2. As for the experimental part:
as §1, §2

Data set [2] concerns HCMV strain GDGr K17 - resistant isolate. Nature of the data set: HCMV primary assay, resistant isolate GDGr K17, HFF cells. The data set is classed as cell-based, Human Cytomegalovirus. The settings on record: Human betaherpesvirus 5, HFF. On the procedure:
as §1

Data set [3] relates to Adenovirus Adenoid75 strain. Nature of the data set: Adenovirus primary assay, Adenoid75 strain, HFF cells. The data set is classed as cell-based. The settings on record: unidentified adenovirus, HFF.
A short description of data set [4]: Cytotoxicity concurrent with VZV Ellen primary assay. The data set is classed as cell-based. The following applies: human; VZV Ellen primary assay, cell line HFF; read-out: CC50. As for the experimental part: as §1
Data set [5] is described as follows: Cytotoxicity concurrent with HSV2 primary assay. The data set is classed as cell-based. The following applies: human; HSV2 primary assay, HFF cells; read-out: CC50. As for the experimental part: as §1
A short description of data set [6]: Cytotoxicity concurrent with Adenovirus secondary assay. The data set is classed as cell-based. The settings on record: human; Adeno secondary assay, HFF cells. As for the experimental part:
(§3) Monolayers of HFF cells were prepared in 96-well plates and incubated at 37° C. for 1 d to allow the cells to reach confluency. Media was then aspirated from the wells and cells infected at a high MOI. At 1 h following infection, the inocula were removed and the monolayers rinsed with fresh media. […] Drug dilutions were added to the wells and the plates were incubated for various times, depending on the virus used and represents a single replication cycle for the virus. A duplicate set of dilutions were also performed but remained uninfected to serve as a cytotoxicity control and received equal compound exposure. Supernatants from each of the infected wells were subsequently titered using CTG in a TCID50 assay to quantify the progeny virus. For HCMV only, viral yield in the supernatants from the infected cells were titered using qPCR with HCMV primers [NT], and probe [NT].

Data set [7] has as its system Epstein-Barr virus Akata strain. Kind of data set: Epstein-Barr primary assay, Akata strain, Akata cells. The following applies: human gammaherpesvirus 4, Akata. The data set is classed as cell-based.
Data set [8] in a line: Cytotoxicity concurrent with Adenovirus primary assay. The format is cell-based. The settings on record: human; Adenovirus primary assay, HFF cells; read-out: CC50.
A short description of data set [9]: Cytotoxicity concurrent with HCMV AD169 primary assay. The format is cell-based, human. The following applies: human.
Data set [10] can be described thus: Cytotoxicity concurrent with EBV primary assay. The settings on record: human.
The nature of data set [11]: Cytotoxicity concurrent with VZV 15-6-001 primary assay. The data set is classed as cell-based. The settings on record: human, HFF cell line. As for the experimental part: as §1
For data set [12], the system named is Adenovirus Adenoid75 strain. Kind of data set: Adenovirus secondary assay (yield reduction), Adenoid75 strain, HFF cells. The data set is classed as cell-based. The following applies: unidentified adenovirus, HFF. As for the experimental part: as §3
Data set [13] concerns VZV strain 15-6-001 resistant isolate. Kind of data set: microbe, parasite or virus in culture. The data set is classed as cell-based, Varicella Zoster Virus. The following applies: Human alphaherpesvirus 3, HFF. On the procedure:
as §1, §2

The nature of data set [14]: Cytotoxicity concurrent with HSV1 E-377 primary assay. The data set is classed as cell-based. The settings on record: human; HSV1 E-377 primary assay, HFF cells; read-out: CC50. As for the experimental part:
as §1

In another data set the test system is HCMV strain AD169. Kind of data set: HCMV primary assay (CPE), strain AD169, HFF cells. The format is cell-based, Human Cytomegalovirus. On the procedure: The antiviral activity of the compound against HCMV in the described Primary assay was measured by treating primary Human foreskin fibroblast (HFF) cells infected with HCMV with a range of compound concentrations—description of methods for this assay can be found in section 1.3.2.1. […] . Additional tested assay parameters in this Primary assay can be found in Table 3.2.1 and include EC90, S150, and S190 values—descriptions of those data points can be found in section 3.2.1.

The subject of data set [15] is Human herpes virus 8 strain BCBL-1. Nature of the data set: Human herpes virus 8 primary assay, BCBL-1 cells. The following applies: Human gammaherpesvirus 8, BCBL1, strain BCBL-1, BCBL-1 cells. The format is cell-based, Human Herpesvirus 8.
Data set [16] in a line: Cytotoxicity concurrent with HHV-8 primary assay. The following applies: human, BCBL-1 cells. The data set is classed as cell-based.
For data set [17], the system named is Human papillomavirus 11 strain HE611260.1. Kind of data set: Human papillomavirus 11 primary assay (replicon), C-33 A cells. The format is cell-based. The settings on record: strain HE611260.1, C-33 A cells. The text has this: (§4) An HPV11 replicon assay was developed and expresses the essential E1 and E2 proteins from the native promoter. The E2 origin binding protein interacts with the virus origin of replication and recruits the E1 replicative helicase which unwinds the DNA and helps to recruit the cellular DNA replication machinery (including DNA polymerases, type I and type II topoisomerases, DNA ligase, single-stranded DNA binding proteins, proliferating cell nuclear antigen). The replication complex then drives the amplification of the replicon which can be assessed by the expression of a destabilized NanoLuc reporter gene carried on the replicon. In this assay, the replicon (pMP619) is transfected into C-33 A cells grown as monolayers in 384-well plates. At 48 h post transfection, the enzymatic activity of the destabilized NanoLuc reporter is assessed with NanoGlo reagent. […] . Beadle et al., 2016.

A short description of data set [18]: Cytotoxicity concurrent with HHV-6B primary assay. The following applies: human, MOLT-3 cells. The data set is classed as cell-based.
A short description of data set [19]: Cytotoxicity concurrent with HPV11 primary assay. The data set is classed as cell-based. The following applies: human, C-33 A cells.
From the text: as §4

For data set [20], the system named is Human herpes virus 6B strain Z29. Nature of the data set: Human herpes virus 6B primary assay, strain Z29, MOLT-3 cells. The data set is classed as cell-based, Human Herpesvirus 6B. The settings on record: Human betaherpesvirus 6B.
The nature of data set [21]: Metabolic stability in mice liver microsomes. The following applies: mice liver microsomes, 1 μM compound, 1 mM NADPH, 60 min. On the procedure: Potassium phosphate buffer (Kphos) was prepared by adding 0.647 g potassium phosphate monobasic (KH2PO4) and 3.527 g potassium phosphate dibasic (K2HPO4) to 400 mL of Milli-Q water. pH of the buffer was adjusted to 7.4 and volume was made up to 500 mL.
Stock solutions of the test compounds were prepared in DMSO at a concentration of 1 mM.
To this microsomal mix 1.42 μL (1 mM) of test compound and positive control were spiked, from this mix 70 μL was transferred to 96 well plate and pre-incubated at 37° C. for 5 min. […] The plates were centrifuged at 4000 RPM for 15 min and 100 μL aliquots were submitted for analysis by LC-MS/MS.
Samples were monitored for parent compound disappearance in MRM mode using LC-MS/MS. The LC-MS/MS conditions and MRM chromatogram will be provided as per client request.
The peak area ratios of analyte versus internal standard were used to calculate the % remaining at the end of 60 minutes in presence NADPH.

The next data set has as its target CDK9/cyclin T1 (Homo sapiens (Human), UniProt P50750). Nature of the data set: Kinase activity assay, CDK9/cyclin T1. The format is biochemical. The following applies: Table 3.1.2; 10 μM ATP; 10-dose triplicate starting at 9.827 μM; unit not printed (table 3.1.1 prints M); read-out: CDK9/cyclin T1 kinase activity (IC50).
Setting [22] is: Human betaherpesvirus 5, AD169, HFF.

Chain of CDK9/cyclin T1 (P50750 whole entry): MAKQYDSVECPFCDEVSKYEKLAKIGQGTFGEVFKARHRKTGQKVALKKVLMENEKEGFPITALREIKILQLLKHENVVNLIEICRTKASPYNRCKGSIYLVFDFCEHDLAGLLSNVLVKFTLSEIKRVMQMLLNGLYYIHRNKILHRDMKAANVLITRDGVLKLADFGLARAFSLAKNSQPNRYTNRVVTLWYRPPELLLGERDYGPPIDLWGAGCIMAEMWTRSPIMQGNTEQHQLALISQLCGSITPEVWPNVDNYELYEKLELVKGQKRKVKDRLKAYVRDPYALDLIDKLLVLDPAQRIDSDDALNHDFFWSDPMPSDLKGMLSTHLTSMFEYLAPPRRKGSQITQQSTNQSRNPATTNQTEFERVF
Chain of CDK9/cyclin T1 (O60563 whole entry partner): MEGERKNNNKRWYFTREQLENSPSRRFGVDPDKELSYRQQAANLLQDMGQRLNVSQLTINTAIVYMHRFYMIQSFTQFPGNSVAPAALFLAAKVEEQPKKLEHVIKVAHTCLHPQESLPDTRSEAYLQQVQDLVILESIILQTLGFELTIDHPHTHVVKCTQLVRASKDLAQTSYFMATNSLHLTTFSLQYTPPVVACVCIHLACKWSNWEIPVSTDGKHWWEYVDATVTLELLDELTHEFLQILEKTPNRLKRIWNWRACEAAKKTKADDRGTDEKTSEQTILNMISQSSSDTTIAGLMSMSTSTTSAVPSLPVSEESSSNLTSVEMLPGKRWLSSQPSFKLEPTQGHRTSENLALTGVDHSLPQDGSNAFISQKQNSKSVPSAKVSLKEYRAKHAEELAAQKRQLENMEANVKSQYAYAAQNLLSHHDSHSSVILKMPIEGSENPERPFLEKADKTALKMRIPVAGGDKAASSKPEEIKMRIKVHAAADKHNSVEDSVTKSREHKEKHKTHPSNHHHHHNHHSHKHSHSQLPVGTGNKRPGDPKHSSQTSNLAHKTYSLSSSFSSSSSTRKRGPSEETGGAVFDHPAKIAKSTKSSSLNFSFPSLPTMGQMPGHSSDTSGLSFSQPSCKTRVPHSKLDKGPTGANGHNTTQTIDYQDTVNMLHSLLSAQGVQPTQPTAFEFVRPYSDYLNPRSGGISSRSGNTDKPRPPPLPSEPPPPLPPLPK

For the molecule `Nc1nc2c(ncn2COCCO)c(=O)[nH]1` [Acyclovir, reference compound], the EC50 worked out at 150 µM in [1]; 2.56 µM in the data set on HSV1 strain E-377 (Human alphaherpesvirus 1, HSV1 primary assay, strain E-377, HFF cells, read-out: EC50); 5.59 µM in the data set on VZV strain Ellen (Human alphaherpesvirus 3, VZV primary assay, strain Ellen, cell line HFF, read-out: EC50); 2.56 µM in the data set on HSV2 strain G (Human alphaherpesvirus 2, HSV2 primary assay, strain G, HFF cells, read-out: EC50); 16.8 µM in [2]. The EC90 in the data set on VZV strain Ellen (Human alphaherpesvirus 3, VZV primary assay, strain Ellen, cell line HFF, read-out: EC90) turned out to be 69.4 µM.
With `OCC1CCC(Nc2cc3c4ccc(F)cc4nn3cn2)CC1` (stereo not drawn) [VKT-029], the EC50 was determined as 5.12 µM in data set [3]; 50 µM in the data set with HSV1 strain E-377 (Human alphaherpesvirus 1, HFF); 4.79 µM in data set [7]; 4.02 µM with VZV strain Ellen (Human alphaherpesvirus 3, HFF); 50 µM in the data set on HSV2 strain G (Human alphaherpesvirus 2, HFF); 10 µM in data set [13]. This molecule also gave a concentration giving a half-maximal response (EC50) in the data set on HCMV strain AD169 (setting [22]) of 50 µM. In addition, the cytotoxic concentration (CC50) came to 45.1 µM in [4]; 50 µM in [5]; 100 µM in data set [6]; 50 µM in data set [8]; 50 µM in data set [9] (HCMV primary assay, HFF cells, read-out: CC50); 47.2 µM in data set [11]. Also, the CC50 in [14] is 50 µM. In addition, the EC90 in the data set on HSV1 strain E-377 (Human alphaherpesvirus 1, HFF) was determined as 50 µM; in data set [7], 12.1 µM; in the data set on VZV strain Ellen (Human alphaherpesvirus 3, HFF), 10 µM; in the data set on HSV2 strain G (Human alphaherpesvirus 2, HFF) it was 50 µM; in [12], 3.91 µM; in data set [13], 10 µM. The molecule further registered an EC90 in the data set on HCMV strain AD169 (setting [22]) of 50 µM. The molecule also returned a CC50 at 72 h in data set [10] of 50 µM.
Regarding `Fc1ccc2c(c1)nn1cnc(NC3CCOCC3)cc21` [VKT-320, 7-fluoro-N-(tetrahydro-2H-pyran-4-yl)pyrimido[1,6-b]indazol-3-amine], the EC50 in data set [15] worked out at 22.1 µM; in data set [17], 7.99 µM; in the data set with HCMV strain AD169 (Human betaherpesvirus 5, HCMV primary assay, virus strain AD169, HFF cells, read-out: EC50), 10 µM; in [20] it was 8.96 µM. Also, the concentration for an effect of 90% (EC90) in data set [15] came to 44.2 µM; in [17], 19.8 µM; in the data set on HCMV strain AD169 (Human betaherpesvirus 5, HCMV primary assay, virus strain AD169, HFF cells, read-out: EC90), 10 µM; in data set [20], 32.6 µM. Further, the 50% cytotoxic concentration (CC50) in data set [16] came out at 50 µM; in data set [9] (CC50), 38.5 µM; in data set [19], 50 µM. The half-maximal cytotoxic concentration (CC50) at 7 d in [18] came out at 50 µM. In addition, in [21], the “% Remaining at 60 min” value was 37%. For the same molecule, on CDK9/cyclin T1, the IC50 was found to be 1.68 µM.
